Data from ChEMBL document CHEMBL1201862, “PubChem BioAssay data set” (2004).
Activity calls are given as the source filed them.

Columns and labels:
[1] = target: Adenosylmethionine-8-amino-7-oxononanoate aminotransferase (Mycobacterium tuberculosis, UniProt P9WQ81); experiment: Mycobacterium tuberculosis BioA enzyme inhibitor Measured in Biochemical System Using Plate Reader - 2163-02_Inhibitor_Dose_CherryPick_Activity.; type: functional, Mycobacterium tuberculosis UT205
Orexin receptor type 2 [2] = target: T1, Orexin receptor type 2 (Homo sapiens, UniProt O43614); experiment: Counterscreen assay for antagonists of the orexin 1 receptor (OX1R; HCRTR1): Fluorescence-based cell-based dose response assay for antagonists of the orexin 2 receptor (OX2R; HCRTR2), run by assay provider.; type: functional
T1 sequence (O43614 whole entry): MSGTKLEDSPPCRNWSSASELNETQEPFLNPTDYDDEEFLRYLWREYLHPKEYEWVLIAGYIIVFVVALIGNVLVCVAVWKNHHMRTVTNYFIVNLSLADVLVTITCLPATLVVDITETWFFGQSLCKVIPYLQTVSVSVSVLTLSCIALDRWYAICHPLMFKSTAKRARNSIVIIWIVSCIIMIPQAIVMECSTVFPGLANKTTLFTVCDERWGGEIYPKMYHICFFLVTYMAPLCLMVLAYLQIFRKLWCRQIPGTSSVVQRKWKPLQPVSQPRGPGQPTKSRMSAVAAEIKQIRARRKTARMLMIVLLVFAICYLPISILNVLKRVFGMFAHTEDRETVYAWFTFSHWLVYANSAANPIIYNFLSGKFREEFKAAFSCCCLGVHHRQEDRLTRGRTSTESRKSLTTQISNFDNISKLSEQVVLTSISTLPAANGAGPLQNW

[3] = target: T2, Orexin/Hypocretin receptor type 1 (Homo sapiens, UniProt O43613); experiment: Homogeneous Time Resolved Fluorescence (HTRF)-based cell-based high throughput dose response assay for antagonists of the orexin 1 receptor (OX1R; HCRTR1). [Related pubchem assays (depositor defined):AID434989, AID435008, AID463079, AID485270, AID492963, AID492964, AID492965, AID493232, AID504717, AID504718]; type: functional
T2 sequence (O43613 whole entry): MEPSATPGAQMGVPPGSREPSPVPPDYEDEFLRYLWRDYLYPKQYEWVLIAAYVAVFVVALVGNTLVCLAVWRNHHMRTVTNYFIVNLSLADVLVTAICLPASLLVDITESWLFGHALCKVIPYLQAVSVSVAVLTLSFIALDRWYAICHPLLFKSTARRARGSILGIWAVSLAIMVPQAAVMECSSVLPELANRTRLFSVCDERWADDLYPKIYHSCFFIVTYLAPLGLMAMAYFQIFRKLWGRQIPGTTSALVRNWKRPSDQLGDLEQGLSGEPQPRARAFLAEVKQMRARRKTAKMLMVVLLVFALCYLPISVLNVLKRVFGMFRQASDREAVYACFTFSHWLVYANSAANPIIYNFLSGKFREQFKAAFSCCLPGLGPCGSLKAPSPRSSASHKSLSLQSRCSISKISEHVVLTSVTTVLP

[4] = target: T2, Orexin/Hypocretin receptor type 1; experiment: Fluorescence-based cell-based high throughput dose response assay for antagonists of the orexin 1 receptor (OX1R; HCRTR1). [Related pubchem assays (depositor defined):AID434989, AID435008, AID463079, AID485270, AID492963, AID492964, AID492965, AID493232, AID504717, AID504718]; type: functional
Orexin receptor type 2 [5] = target: T1, Orexin receptor type 2; experiment: Counterscreen assay for antagonists of the orexin 1 receptor (OX1R; HCRTR1): Homogeneous Time Resolved Fluorescence (HTRF)-based cell-based dose response assay for antagonists of the orexin 2 receptor (OX2R; HCRTR2), run by assay provider.; type: functional
[6] = (§1) Counterscreen for antagonists of the orexin 1 receptor (OX1R; HCRTR1): Fluorescence-based cell-based high throughput dose response assay to identify antagonists of the parental CHO cell line. [Related pubchem assays (depositor defined):AID434989, AID435008, AID463079, AID485270, AID492963, AID492964, AID492965, AID493232, AID504699, AID504701]; type: functional
CHO-K1 = experiment: as §1, with “Homogeneous time resolved fluorescence (HTRF)-based” for “Fluorescence-based”, “cell-based” for “cell-based high throughput”, “CHO-K1” for “CHO”; type: functional; details: Cricetulus griseus;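 also: potency for inhibition of ATP-stimulated IP1 production as antagonists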
[7] = target: T3, Voltage-gated N-type calcium channel alpha-1B subunit/Amyloid beta A4 precursor protein-binding family A member 1 (Homo sapiens, UniProt Q00975+Q02410); type: protein assay
T3 sequence (Q00975 whole entry): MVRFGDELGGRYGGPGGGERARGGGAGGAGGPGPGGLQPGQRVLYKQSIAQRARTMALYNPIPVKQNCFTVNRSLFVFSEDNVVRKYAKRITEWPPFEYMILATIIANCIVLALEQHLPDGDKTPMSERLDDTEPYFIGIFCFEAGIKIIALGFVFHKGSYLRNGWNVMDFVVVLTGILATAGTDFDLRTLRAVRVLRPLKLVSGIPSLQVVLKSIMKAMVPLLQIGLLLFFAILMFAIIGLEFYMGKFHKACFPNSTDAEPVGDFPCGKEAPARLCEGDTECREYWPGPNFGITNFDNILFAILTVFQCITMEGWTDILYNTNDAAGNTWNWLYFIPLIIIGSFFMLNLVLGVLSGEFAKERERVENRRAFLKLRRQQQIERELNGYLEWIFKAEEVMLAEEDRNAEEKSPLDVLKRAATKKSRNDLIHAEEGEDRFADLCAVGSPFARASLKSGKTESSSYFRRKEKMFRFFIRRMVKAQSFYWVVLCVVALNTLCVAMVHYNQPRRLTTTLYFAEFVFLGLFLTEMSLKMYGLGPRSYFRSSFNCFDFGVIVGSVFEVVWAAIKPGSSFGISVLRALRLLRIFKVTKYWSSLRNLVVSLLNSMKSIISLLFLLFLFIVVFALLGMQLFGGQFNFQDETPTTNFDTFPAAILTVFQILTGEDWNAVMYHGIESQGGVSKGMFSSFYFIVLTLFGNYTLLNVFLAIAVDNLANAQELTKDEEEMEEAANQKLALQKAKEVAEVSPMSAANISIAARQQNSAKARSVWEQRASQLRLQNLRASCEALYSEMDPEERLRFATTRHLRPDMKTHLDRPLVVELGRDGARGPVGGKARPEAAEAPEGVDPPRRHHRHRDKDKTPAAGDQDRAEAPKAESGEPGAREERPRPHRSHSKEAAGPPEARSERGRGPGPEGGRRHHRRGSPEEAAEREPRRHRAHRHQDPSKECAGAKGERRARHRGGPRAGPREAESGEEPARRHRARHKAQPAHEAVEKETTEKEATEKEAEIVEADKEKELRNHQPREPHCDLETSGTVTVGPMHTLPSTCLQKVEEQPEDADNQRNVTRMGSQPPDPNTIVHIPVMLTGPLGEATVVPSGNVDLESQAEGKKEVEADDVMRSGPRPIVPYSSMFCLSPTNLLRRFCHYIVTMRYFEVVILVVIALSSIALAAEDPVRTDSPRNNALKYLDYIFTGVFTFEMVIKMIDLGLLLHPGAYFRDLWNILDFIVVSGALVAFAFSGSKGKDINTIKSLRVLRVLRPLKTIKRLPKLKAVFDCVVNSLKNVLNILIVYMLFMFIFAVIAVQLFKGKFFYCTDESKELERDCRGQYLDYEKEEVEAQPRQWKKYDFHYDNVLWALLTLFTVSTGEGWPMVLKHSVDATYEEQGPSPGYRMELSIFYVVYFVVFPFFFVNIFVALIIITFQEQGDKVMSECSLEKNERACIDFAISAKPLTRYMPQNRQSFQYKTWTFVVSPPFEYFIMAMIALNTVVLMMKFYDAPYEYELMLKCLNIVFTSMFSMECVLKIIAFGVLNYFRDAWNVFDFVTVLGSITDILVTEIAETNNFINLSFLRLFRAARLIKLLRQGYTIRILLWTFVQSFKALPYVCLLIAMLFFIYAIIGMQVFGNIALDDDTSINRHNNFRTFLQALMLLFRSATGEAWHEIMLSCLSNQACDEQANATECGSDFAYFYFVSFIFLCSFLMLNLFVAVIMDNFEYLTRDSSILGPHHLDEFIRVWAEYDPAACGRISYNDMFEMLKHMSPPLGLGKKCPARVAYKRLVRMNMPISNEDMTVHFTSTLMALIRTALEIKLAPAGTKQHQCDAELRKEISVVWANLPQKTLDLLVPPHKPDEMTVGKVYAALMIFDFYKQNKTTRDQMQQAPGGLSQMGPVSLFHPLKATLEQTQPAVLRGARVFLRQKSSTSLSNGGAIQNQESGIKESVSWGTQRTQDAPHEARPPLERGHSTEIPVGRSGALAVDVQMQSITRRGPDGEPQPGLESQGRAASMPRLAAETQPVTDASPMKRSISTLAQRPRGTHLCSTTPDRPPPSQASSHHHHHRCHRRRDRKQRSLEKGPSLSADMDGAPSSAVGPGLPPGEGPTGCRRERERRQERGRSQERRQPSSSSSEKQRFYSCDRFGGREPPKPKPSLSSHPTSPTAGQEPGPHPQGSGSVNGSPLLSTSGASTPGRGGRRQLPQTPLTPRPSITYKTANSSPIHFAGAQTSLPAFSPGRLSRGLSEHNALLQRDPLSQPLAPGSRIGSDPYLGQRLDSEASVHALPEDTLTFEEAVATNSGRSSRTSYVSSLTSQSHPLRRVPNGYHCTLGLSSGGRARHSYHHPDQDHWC
T3 sequence (Q02410 whole entry): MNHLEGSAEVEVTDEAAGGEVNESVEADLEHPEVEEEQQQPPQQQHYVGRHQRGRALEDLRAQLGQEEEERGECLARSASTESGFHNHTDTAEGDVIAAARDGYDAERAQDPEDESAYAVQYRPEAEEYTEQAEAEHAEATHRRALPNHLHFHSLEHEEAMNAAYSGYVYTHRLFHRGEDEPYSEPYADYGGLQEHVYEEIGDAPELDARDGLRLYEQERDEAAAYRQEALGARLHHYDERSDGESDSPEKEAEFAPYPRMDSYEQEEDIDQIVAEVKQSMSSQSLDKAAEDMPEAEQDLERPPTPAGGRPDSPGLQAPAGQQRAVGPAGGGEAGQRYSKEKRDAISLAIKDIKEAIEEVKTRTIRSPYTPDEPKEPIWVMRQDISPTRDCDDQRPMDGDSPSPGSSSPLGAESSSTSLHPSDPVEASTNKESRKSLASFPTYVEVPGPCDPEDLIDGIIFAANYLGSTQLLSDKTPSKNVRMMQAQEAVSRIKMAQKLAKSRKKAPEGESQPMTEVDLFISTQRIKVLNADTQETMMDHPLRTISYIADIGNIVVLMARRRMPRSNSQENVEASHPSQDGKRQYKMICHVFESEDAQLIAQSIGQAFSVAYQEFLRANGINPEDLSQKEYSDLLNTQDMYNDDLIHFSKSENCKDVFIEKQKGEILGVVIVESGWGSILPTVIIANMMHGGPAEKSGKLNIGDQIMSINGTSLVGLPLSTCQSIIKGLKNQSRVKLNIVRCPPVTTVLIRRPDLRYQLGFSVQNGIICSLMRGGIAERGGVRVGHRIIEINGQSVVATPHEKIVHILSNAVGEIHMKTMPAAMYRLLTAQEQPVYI

[8] = target: T4, Apoptotic protease-activating factor 1 (Homo sapiens, UniProt O14727); type: functional
T4 sequence (O14727 whole entry): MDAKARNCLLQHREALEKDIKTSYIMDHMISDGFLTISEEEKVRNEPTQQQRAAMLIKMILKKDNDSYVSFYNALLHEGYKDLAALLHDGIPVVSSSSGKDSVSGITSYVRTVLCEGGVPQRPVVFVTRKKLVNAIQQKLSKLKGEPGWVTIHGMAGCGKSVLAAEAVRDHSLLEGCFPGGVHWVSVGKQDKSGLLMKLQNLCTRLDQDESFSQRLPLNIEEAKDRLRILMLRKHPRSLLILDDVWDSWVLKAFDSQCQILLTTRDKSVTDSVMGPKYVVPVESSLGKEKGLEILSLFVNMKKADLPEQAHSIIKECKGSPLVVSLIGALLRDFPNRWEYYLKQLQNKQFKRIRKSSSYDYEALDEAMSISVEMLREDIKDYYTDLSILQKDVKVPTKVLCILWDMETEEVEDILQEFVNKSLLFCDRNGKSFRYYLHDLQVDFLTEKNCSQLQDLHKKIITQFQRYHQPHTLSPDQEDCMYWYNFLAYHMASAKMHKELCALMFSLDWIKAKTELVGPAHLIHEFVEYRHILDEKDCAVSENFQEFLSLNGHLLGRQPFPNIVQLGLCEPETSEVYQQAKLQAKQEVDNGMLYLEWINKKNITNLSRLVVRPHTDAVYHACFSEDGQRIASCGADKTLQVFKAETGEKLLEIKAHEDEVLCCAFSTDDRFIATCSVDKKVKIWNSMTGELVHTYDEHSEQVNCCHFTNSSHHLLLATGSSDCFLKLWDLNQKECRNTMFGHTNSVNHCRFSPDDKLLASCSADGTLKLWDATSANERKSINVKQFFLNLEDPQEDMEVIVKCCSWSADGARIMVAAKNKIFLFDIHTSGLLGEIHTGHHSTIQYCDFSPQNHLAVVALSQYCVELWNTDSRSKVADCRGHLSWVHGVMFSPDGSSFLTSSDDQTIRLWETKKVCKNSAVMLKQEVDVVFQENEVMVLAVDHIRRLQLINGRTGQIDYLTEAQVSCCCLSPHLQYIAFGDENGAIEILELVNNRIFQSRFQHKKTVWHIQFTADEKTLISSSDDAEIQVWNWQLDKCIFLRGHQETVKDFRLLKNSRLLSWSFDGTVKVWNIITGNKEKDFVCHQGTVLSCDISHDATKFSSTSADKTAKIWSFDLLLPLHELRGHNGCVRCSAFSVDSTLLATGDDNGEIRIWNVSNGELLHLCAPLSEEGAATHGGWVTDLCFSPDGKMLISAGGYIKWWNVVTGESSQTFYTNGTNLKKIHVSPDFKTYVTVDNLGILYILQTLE

[9] = target: T3, Voltage-gated N-type calcium channel alpha-1B subunit/Amyloid beta A4 precursor protein-binding family A member 1; type: protein assay; remark: listed apart in the source
Large T antigen = Large T antigen (Simian virus 40, UniProt P03070); type: functional, Betapolyomavirus macacae;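 also: Confirmatory-stage PubChem screen for compounds that inhibit SV40 T antigen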
Chain of Large T antigen (P03070 whole entry): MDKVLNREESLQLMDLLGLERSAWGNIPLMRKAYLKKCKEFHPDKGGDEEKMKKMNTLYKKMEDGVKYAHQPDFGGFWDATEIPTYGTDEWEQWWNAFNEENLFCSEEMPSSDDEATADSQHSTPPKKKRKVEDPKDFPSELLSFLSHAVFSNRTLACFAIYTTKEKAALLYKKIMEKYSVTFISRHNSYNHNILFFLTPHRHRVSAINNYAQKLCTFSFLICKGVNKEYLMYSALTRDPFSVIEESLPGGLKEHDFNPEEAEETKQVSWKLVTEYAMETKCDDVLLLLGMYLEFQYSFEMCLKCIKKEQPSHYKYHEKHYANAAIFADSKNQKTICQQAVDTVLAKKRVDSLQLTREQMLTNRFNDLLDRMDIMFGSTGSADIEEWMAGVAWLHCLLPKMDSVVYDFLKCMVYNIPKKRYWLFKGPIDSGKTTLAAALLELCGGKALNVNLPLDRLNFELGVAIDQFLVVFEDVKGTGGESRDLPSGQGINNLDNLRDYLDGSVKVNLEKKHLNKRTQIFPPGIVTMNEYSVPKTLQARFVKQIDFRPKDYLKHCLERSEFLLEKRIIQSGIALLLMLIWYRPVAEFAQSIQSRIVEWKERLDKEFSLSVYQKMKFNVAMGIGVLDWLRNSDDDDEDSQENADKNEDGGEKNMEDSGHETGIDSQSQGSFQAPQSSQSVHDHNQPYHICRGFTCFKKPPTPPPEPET

Chain of Adenosylmethionine-8-amino-7-oxononanoate aminotransferase (P9WQ81 whole entry): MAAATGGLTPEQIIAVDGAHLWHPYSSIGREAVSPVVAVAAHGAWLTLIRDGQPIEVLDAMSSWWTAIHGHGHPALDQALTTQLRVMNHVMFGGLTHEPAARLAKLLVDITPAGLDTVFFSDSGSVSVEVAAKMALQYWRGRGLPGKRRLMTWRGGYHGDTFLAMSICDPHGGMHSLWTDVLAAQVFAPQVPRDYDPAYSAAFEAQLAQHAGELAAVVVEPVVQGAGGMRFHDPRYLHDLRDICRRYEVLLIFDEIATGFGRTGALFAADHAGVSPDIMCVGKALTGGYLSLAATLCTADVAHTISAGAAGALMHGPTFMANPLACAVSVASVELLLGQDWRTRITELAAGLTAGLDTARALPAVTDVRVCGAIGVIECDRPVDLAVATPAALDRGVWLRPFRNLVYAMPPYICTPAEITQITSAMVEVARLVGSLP

CO/C(O)=C1\C(C)=Nc2sc(C(N)=O)c(N)c2C1c1ccncc1 (stereo unspecified)
AC50 [1]: 4.4 µM (active)

Cc1ccccc1NC(=O)C1CCCN1S(=O)(=O)c1ccccc1C(F)(F)F (stereo unspecified)
IC50 (Orexin receptor type 2 [2]): 10.1 µM (inactive) | IC50 [3]: 0.352 µM (active) | IC50 [4]: 4.95 µM (active) | IC50 (Orexin receptor type 2 [5]): 2.34 µM (active) | IC50 [6]: > 49.8 µM (inactive) | IC50 (CHO-K1): > 66.2 µM (inactive)

CC1(C)[N+]([O-])=c2ccc([N+](=O)[O-])cc2=[N+]1[O-].NO
IC50 [7]: 0.26 µM (active) | IC50 [8]: 11.7 µM (active) | IC50 [9]: 22.1 µM (active) | IC50 (Large T antigen): 6.55 µM (active)
